From paper PMC11208997 (RSC Advances, 2024)

Molecular target: EGFR (Homo sapiens, UniProt P00533)
Test: EGFR-TK inhibitory assay
Type: biochemical
Conditions: not given

EGFR (Homo sapiens, UniProt P00533), sequence (P00533 669-1210): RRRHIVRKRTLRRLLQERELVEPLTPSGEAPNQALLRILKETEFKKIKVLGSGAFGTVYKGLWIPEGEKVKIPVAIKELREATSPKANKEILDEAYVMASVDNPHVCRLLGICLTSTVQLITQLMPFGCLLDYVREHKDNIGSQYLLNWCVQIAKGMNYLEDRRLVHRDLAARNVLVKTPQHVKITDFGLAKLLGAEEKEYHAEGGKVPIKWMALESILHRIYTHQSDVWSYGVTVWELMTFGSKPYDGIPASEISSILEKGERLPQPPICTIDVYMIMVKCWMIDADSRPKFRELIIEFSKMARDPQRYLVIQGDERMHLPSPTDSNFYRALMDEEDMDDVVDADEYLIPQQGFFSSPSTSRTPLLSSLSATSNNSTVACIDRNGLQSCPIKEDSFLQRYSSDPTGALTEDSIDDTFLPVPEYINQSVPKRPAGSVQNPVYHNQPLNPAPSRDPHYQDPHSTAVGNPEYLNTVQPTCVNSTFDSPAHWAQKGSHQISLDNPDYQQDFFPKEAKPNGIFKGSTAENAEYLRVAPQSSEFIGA

Row | SMILES | IC50
1 | Br.c1ccc(C2=NN/C(=N/C3CCCCC3)SC2)cc1 [Compound 9c, (Z)-N-(5-Phenyl-3,6-dihydro-2H-1,3,4-thiadiazin-2-ylidene) cyclohexanaminium bromide] | 86 ± 5 nM
2 | Brc1ccc(C2=NN=C(Nc3ccccc3)SC2)cc1 [Compound 9d, 5-(4-Bromophenyl)-2-(phenylamino)-6H-1,3,4-thiadiazin-3-ium bromide] | 96 ± 7 nM
3 | Br.c1ccc(NC2=NN=C(c3ccccc3)CS2)cc1 [Compound 9a, 5-Phenyl-2-(phenylamino)-6H-1,3,4-thiadiazin-3-ium bromide] | 92 ± 7 nM

Test system: colon cancer (HT-29)
Test: Antiproliferative assay, HT-29
Type: cell-based
Conditions: Homo sapiens, HT-29, read-out: Antiproliferative activity IC50 ± SEM, HT-29

Row | SMILES | IC50
4 | C/N=C1/NN=C(c2ccc(Br)cc2)CS1 [Compound 9e, (Z)-N-(5-(4-Bromophenyl)-3,6-dihydro-2H-1,3,4-thiadiazin-2-ylidene) methanaminium bromide] | 64 ± 6 nM
5 | Br.C=CC/N=C1/NN=C(c2ccccc2)CS1 [Compound 9b, (Z)-N-(5-Phenyl-3,6-dihydro-2H-1,3,4-thiadiazin-2-ylidene)prop-2-en-1-aminium bromide] | 58 ± 5 nM
6 | C#Cc1cccc(Nc2ncnc3cc(OCCOC)c(OCCOC)cc23)c1 [Erlotinib, reference compound] | 30 ± 3 nM
7 | Br.c1ccc(C2=NN/C(=N/C3CCCCC3)SC2)cc1 [Compound 9c, (Z)-N-(5-Phenyl-3,6-dihydro-2H-1,3,4-thiadiazin-2-ylidene) cyclohexanaminium bromide] | 40 ± 4 nM
8 | Brc1ccc(C2=NN=C(Nc3ccccc3)SC2)cc1 [Compound 9d, 5-(4-Bromophenyl)-2-(phenylamino)-6H-1,3,4-thiadiazin-3-ium bromide] | 47 ± 4 nM
9 | Br.c1ccc(NC2=NN=C(c3ccccc3)CS2)cc1 [Compound 9a, 5-Phenyl-2-(phenylamino)-6H-1,3,4-thiadiazin-3-ium bromide] | 44 ± 4 nM
10 | CC/N=C1/NN=C(c2ccc(Br)cc2)CS1 [Compound 9f, (Z)-N-(5-(4-Bromophenyl)-3,6-dihydro-2H-1,3,4-thiadiazin-2-ylidene)ethan aminium bromide] | 66 ± 6 nM
11 | Brc1ccc(C2=NN/C(=N/C3CCCCC3)SC2)cc1 [Compound 9g, (Z)-N-(5-(4-Bromophenyl)-3,6-dihydro-2H-1,3,4-thiadiazin-2-ylidene) cyclohexanaminium bromide] | 56 ± 5 nM

Test system: lung cancer (A-549) cell line
Test: Antiproliferative assay, A-549
Type: cell-based
Conditions: Homo sapiens, A549, read-out: Antiproliferative activity IC50 ± SEM, A-549

Row | SMILES | IC50
12 | C/N=C1/NN=C(c2ccc(Br)cc2)CS1 [Compound 9e, (Z)-N-(5-(4-Bromophenyl)-3,6-dihydro-2H-1,3,4-thiadiazin-2-ylidene) methanaminium bromide] | 62 ± 6 nM
13 | Br.C=CC/N=C1/NN=C(c2ccccc2)CS1 [Compound 9b, (Z)-N-(5-Phenyl-3,6-dihydro-2H-1,3,4-thiadiazin-2-ylidene)prop-2-en-1-aminium bromide] | 56 ± 5 nM
14 | C#Cc1cccc(Nc2ncnc3cc(OCCOC)c(OCCOC)cc23)c1 [Erlotinib, reference compound] | 30 ± 3 nM
15 | Br.c1ccc(C2=NN/C(=N/C3CCCCC3)SC2)cc1 [Compound 9c, (Z)-N-(5-Phenyl-3,6-dihydro-2H-1,3,4-thiadiazin-2-ylidene) cyclohexanaminium bromide] | 37 ± 3 nM
16 | Brc1ccc(C2=NN=C(Nc3ccccc3)SC2)cc1 [Compound 9d, 5-(4-Bromophenyl)-2-(phenylamino)-6H-1,3,4-thiadiazin-3-ium bromide] | 48 ± 4 nM
17 | Br.c1ccc(NC2=NN=C(c3ccccc3)CS2)cc1 [Compound 9a, 5-Phenyl-2-(phenylamino)-6H-1,3,4-thiadiazin-3-ium bromide] | 43 ± 4 nM
18 | CC/N=C1/NN=C(c2ccc(Br)cc2)CS1 [Compound 9f, (Z)-N-(5-(4-Bromophenyl)-3,6-dihydro-2H-1,3,4-thiadiazin-2-ylidene)ethan aminium bromide] | 65 ± 6 nM
19 | Brc1ccc(C2=NN/C(=N/C3CCCCC3)SC2)cc1 [Compound 9g, (Z)-N-(5-(4-Bromophenyl)-3,6-dihydro-2H-1,3,4-thiadiazin-2-ylidene) cyclohexanaminium bromide] | 54 ± 5 nM

Test system: breast cancer (MCF-7) cell line
Test: Antiproliferative assay, MCF-7
Type: cell-based
Conditions: Homo sapiens, MCF7, read-out: Antiproliferative activity IC50 ± SEM, MCF-7

Row | SMILES | IC50
20 | C/N=C1/NN=C(c2ccc(Br)cc2)CS1 [Compound 9e, (Z)-N-(5-(4-Bromophenyl)-3,6-dihydro-2H-1,3,4-thiadiazin-2-ylidene) methanaminium bromide] | 58 ± 5 nM
21 | Br.C=CC/N=C1/NN=C(c2ccccc2)CS1 [Compound 9b, (Z)-N-(5-Phenyl-3,6-dihydro-2H-1,3,4-thiadiazin-2-ylidene)prop-2-en-1-aminium bromide] | 52 ± 5 nM
22 | C#Cc1cccc(Nc2ncnc3cc(OCCOC)c(OCCOC)cc23)c1 [Erlotinib, reference compound] | 40 ± 3 nM
23 | Br.c1ccc(C2=NN/C(=N/C3CCCCC3)SC2)cc1 [Compound 9c, (Z)-N-(5-Phenyl-3,6-dihydro-2H-1,3,4-thiadiazin-2-ylidene) cyclohexanaminium bromide] | 35 ± 3 nM
24 | Brc1ccc(C2=NN=C(Nc3ccccc3)SC2)cc1 [Compound 9d, 5-(4-Bromophenyl)-2-(phenylamino)-6H-1,3,4-thiadiazin-3-ium bromide] | 44 ± 4 nM
25 | Br.c1ccc(NC2=NN=C(c3ccccc3)CS2)cc1 [Compound 9a, 5-Phenyl-2-(phenylamino)-6H-1,3,4-thiadiazin-3-ium bromide] | 40 ± 4 nM
26 | CC/N=C1/NN=C(c2ccc(Br)cc2)CS1 [Compound 9f, (Z)-N-(5-(4-Bromophenyl)-3,6-dihydro-2H-1,3,4-thiadiazin-2-ylidene)ethan aminium bromide] | 64 ± 6 nM
27 | Brc1ccc(C2=NN/C(=N/C3CCCCC3)SC2)cc1 [Compound 9g, (Z)-N-(5-(4-Bromophenyl)-3,6-dihydro-2H-1,3,4-thiadiazin-2-ylidene) cyclohexanaminium bromide] | 51 ± 5 nM

Test system: EGFR
Test: Western blotting, EGFR level in A549 cells
Type: cell-based, human
Conditions: untreated control OD 0.695

Row | SMILES | Western blotting OD, EGFR
28 | Br.c1ccc(C2=NN/C(=N/C3CCCCC3)SC2)cc1 [Compound 9c, (Z)-N-(5-Phenyl-3,6-dihydro-2H-1,3,4-thiadiazin-2-ylidene) cyclohexanaminium bromide] | 0.288

Molecular target: BRAF^V600E (Mus musculus, UniProt P28028, V585E)
Sequence (P28028 whole entry V585E): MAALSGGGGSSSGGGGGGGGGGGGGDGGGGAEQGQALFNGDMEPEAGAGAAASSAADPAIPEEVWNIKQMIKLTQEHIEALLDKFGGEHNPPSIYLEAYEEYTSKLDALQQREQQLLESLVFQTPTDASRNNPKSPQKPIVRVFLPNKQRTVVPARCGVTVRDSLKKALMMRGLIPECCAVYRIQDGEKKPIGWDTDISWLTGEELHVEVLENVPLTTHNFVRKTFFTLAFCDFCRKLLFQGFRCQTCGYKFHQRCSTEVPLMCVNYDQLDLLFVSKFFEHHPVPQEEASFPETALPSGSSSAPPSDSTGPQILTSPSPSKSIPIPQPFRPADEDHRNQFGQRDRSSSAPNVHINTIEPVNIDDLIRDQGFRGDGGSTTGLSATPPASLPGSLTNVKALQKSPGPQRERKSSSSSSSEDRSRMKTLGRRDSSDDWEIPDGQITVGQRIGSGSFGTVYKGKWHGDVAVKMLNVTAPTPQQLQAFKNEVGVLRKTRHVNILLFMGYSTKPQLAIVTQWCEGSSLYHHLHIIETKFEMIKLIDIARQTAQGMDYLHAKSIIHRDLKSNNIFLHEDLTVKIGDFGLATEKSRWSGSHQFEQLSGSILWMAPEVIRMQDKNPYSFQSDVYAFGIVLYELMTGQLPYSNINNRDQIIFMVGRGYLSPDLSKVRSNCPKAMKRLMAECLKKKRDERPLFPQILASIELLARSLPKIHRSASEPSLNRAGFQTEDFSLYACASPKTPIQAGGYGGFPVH
Test: BRAF^V600E inhibitory assay
Type: biochemical
Conditions: not given

Row | SMILES | IC50
29 | Br.c1ccc(C2=NN/C(=N/C3CCCCC3)SC2)cc1 [Compound 9c, (Z)-N-(5-Phenyl-3,6-dihydro-2H-1,3,4-thiadiazin-2-ylidene) cyclohexanaminium bromide] | 74 ± 5 nM
30 | Brc1ccc(C2=NN=C(Nc3ccccc3)SC2)cc1 [Compound 9d, 5-(4-Bromophenyl)-2-(phenylamino)-6H-1,3,4-thiadiazin-3-ium bromide] | 88 ± 6 nM
31 | Br.c1ccc(NC2=NN=C(c3ccccc3)CS2)cc1 [Compound 9a, 5-Phenyl-2-(phenylamino)-6H-1,3,4-thiadiazin-3-ium bromide] | 83 ± 6 nM

Test system: VEGFR-2
Test: Western blotting, VEGFR-2 level in A549 cells
Type: cell-based, human
Conditions: untreated control OD 0.662

Row | SMILES | Western blotting OD, VEGFR-2
32 | Br.c1ccc(C2=NN/C(=N/C3CCCCC3)SC2)cc1 [Compound 9c, (Z)-N-(5-Phenyl-3,6-dihydro-2H-1,3,4-thiadiazin-2-ylidene) cyclohexanaminium bromide] | 0.346

Molecular target: VEGFR-2 (Homo sapiens, UniProt P35968)
Sequence (P35968 20-1356): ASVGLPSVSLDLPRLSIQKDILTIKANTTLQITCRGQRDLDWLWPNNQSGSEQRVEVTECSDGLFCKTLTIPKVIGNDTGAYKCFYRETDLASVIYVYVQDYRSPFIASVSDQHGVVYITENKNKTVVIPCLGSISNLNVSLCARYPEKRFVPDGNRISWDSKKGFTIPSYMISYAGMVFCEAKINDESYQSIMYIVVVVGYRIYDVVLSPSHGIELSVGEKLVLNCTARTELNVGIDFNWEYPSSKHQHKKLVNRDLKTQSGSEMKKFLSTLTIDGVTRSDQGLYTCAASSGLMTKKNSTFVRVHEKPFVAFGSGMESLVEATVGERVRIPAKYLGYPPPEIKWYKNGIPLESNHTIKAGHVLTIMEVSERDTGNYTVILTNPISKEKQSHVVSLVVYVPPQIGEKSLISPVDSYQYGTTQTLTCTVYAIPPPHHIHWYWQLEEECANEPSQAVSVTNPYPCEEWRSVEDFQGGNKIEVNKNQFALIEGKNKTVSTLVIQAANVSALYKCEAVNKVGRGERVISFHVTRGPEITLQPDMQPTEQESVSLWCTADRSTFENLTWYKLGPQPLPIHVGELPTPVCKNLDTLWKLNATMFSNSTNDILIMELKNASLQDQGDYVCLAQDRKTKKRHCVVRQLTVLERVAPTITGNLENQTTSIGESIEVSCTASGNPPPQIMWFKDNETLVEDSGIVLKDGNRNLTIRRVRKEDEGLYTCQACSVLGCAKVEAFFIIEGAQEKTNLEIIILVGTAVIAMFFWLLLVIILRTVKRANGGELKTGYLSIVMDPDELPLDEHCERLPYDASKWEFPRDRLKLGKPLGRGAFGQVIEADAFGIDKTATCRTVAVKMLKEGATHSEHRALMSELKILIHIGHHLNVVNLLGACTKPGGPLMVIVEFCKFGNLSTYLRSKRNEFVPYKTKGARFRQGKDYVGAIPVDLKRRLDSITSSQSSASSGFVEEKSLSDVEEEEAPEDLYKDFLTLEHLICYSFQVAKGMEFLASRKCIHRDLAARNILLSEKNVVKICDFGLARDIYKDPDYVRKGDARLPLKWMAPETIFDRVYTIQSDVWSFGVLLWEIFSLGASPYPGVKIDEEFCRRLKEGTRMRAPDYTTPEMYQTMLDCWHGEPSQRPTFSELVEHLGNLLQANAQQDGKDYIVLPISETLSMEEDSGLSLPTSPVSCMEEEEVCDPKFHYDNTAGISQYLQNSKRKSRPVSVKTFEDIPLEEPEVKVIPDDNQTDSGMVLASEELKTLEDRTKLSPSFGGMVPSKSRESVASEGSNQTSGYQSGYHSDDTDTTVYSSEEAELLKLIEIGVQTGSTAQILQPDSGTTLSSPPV
Test: VEGFR-2 inhibitory assay
Type: biochemical
Conditions: not given

Row | SMILES | IC50
33 | Br.c1ccc(C2=NN/C(=N/C3CCCCC3)SC2)cc1 [Compound 9c, (Z)-N-(5-Phenyl-3,6-dihydro-2H-1,3,4-thiadiazin-2-ylidene) cyclohexanaminium bromide] | 2.2 ± 0.02 nM
34 | Brc1ccc(C2=NN=C(Nc3ccccc3)SC2)cc1 [Compound 9d, 5-(4-Bromophenyl)-2-(phenylamino)-6H-1,3,4-thiadiazin-3-ium bromide] | 3.25 ± 0.03 nM
35 | Br.c1ccc(NC2=NN=C(c3ccccc3)CS2)cc1 [Compound 9a, 5-Phenyl-2-(phenylamino)-6H-1,3,4-thiadiazin-3-ium bromide] | 2.8 ± 0.02 nM

Test system: four human cancer cell lines (A-549, MCF-7, Panc-1, HT-29)
Test: Antiproliferative assay, average over four cancer cell lines
Type: cell-based
Conditions: GI50 relative to 9c

Row | SMILES | Fold lower antiproliferative potency (GI50) than 9c
36 | Br.C=CC/N=C1/NN=C(c2ccccc2)CS1 [Compound 9b, (Z)-N-(5-Phenyl-3,6-dihydro-2H-1,3,4-thiadiazin-2-ylidene)prop-2-en-1-aminium bromide] | 1.5 fold
37 | Br.c1ccc(NC2=NN=C(c3ccccc3)CS2)cc1 [Compound 9a, 5-Phenyl-2-(phenylamino)-6H-1,3,4-thiadiazin-3-ium bromide] | 1.2 fold

Same assay, conditions: Homo sapiens, read-out: Antiproliferative activity, Average (GI50)

Row | SMILES | GI50
38 | C/N=C1/NN=C(c2ccc(Br)cc2)CS1 [Compound 9e, (Z)-N-(5-(4-Bromophenyl)-3,6-dihydro-2H-1,3,4-thiadiazin-2-ylidene) methanaminium bromide] | 62 nM
39 | Br.C=CC/N=C1/NN=C(c2ccccc2)CS1 [Compound 9b, (Z)-N-(5-Phenyl-3,6-dihydro-2H-1,3,4-thiadiazin-2-ylidene)prop-2-en-1-aminium bromide] | 56 nM
40 | Br.c1ccc(C2=NN/C(=N/C3CCCCC3)SC2)cc1 [Compound 9c, (Z)-N-(5-Phenyl-3,6-dihydro-2H-1,3,4-thiadiazin-2-ylidene) cyclohexanaminium bromide] | 38 nM
41 | Brc1ccc(C2=NN=C(Nc3ccccc3)SC2)cc1 [Compound 9d, 5-(4-Bromophenyl)-2-(phenylamino)-6H-1,3,4-thiadiazin-3-ium bromide] | 47 nM
42 | Br.c1ccc(NC2=NN=C(c3ccccc3)CS2)cc1 [Compound 9a, 5-Phenyl-2-(phenylamino)-6H-1,3,4-thiadiazin-3-ium bromide] | 43 nM
43 | CC/N=C1/NN=C(c2ccc(Br)cc2)CS1 [Compound 9f, (Z)-N-(5-(4-Bromophenyl)-3,6-dihydro-2H-1,3,4-thiadiazin-2-ylidene)ethan aminium bromide] | 66 nM
44 | Brc1ccc(C2=NN/C(=N/C3CCCCC3)SC2)cc1 [Compound 9g, (Z)-N-(5-(4-Bromophenyl)-3,6-dihydro-2H-1,3,4-thiadiazin-2-ylidene) cyclohexanaminium bromide] | 54 nM

Test system: not listed separately
Test: Cell viability assay
Type: cell-based
Conditions: human, MCF-10A mammary gland epithelial normal cells

Row | SMILES | viability at 96 h, 50 µM
45 | C/N=C1/NN=C(c2ccc(Br)cc2)CS1 [Compound 9e, (Z)-N-(5-(4-Bromophenyl)-3,6-dihydro-2H-1,3,4-thiadiazin-2-ylidene) methanaminium bromide] | 92%
46 | Br.C=CC/N=C1/NN=C(c2ccccc2)CS1 [Compound 9b, (Z)-N-(5-Phenyl-3,6-dihydro-2H-1,3,4-thiadiazin-2-ylidene)prop-2-en-1-aminium bromide] | 90%
47 | Br.c1ccc(C2=NN/C(=N/C3CCCCC3)SC2)cc1 [Compound 9c, (Z)-N-(5-Phenyl-3,6-dihydro-2H-1,3,4-thiadiazin-2-ylidene) cyclohexanaminium bromide] | 92%
48 | Brc1ccc(C2=NN=C(Nc3ccccc3)SC2)cc1 [Compound 9d, 5-(4-Bromophenyl)-2-(phenylamino)-6H-1,3,4-thiadiazin-3-ium bromide] | 89%
49 | Br.c1ccc(NC2=NN=C(c3ccccc3)CS2)cc1 [Compound 9a, 5-Phenyl-2-(phenylamino)-6H-1,3,4-thiadiazin-3-ium bromide] | 91%
50 | CC/N=C1/NN=C(c2ccc(Br)cc2)CS1 [Compound 9f, (Z)-N-(5-(4-Bromophenyl)-3,6-dihydro-2H-1,3,4-thiadiazin-2-ylidene)ethan aminium bromide] | 89%
51 | Brc1ccc(C2=NN/C(=N/C3CCCCC3)SC2)cc1 [Compound 9g, (Z)-N-(5-(4-Bromophenyl)-3,6-dihydro-2H-1,3,4-thiadiazin-2-ylidene) cyclohexanaminium bromide] | 88%

Test system: pancreatic cancer (Panc-1) cell line
Test: Antiproliferative assay, Panc-1
Type: cell-based
Conditions: Homo sapiens, PANC-1, read-out: Antiproliferative activity IC50 ± SEM, Panc-1

Row | SMILES | IC50
52 | C/N=C1/NN=C(c2ccc(Br)cc2)CS1 [Compound 9e, (Z)-N-(5-(4-Bromophenyl)-3,6-dihydro-2H-1,3,4-thiadiazin-2-ylidene) methanaminium bromide] | 64 ± 6 nM
53 | Br.C=CC/N=C1/NN=C(c2ccccc2)CS1 [Compound 9b, (Z)-N-(5-Phenyl-3,6-dihydro-2H-1,3,4-thiadiazin-2-ylidene)prop-2-en-1-aminium bromide] | 58 ± 5 nM
54 | C#Cc1cccc(Nc2ncnc3cc(OCCOC)c(OCCOC)cc23)c1 [Erlotinib, reference compound] | 30 ± 3 nM
55 | Br.c1ccc(C2=NN/C(=N/C3CCCCC3)SC2)cc1 [Compound 9c, (Z)-N-(5-Phenyl-3,6-dihydro-2H-1,3,4-thiadiazin-2-ylidene) cyclohexanaminium bromide] | 38 ± 3 nM
56 | Brc1ccc(C2=NN=C(Nc3ccccc3)SC2)cc1 [Compound 9d, 5-(4-Bromophenyl)-2-(phenylamino)-6H-1,3,4-thiadiazin-3-ium bromide] | 48 ± 4 nM
57 | Br.c1ccc(NC2=NN=C(c3ccccc3)CS2)cc1 [Compound 9a, 5-Phenyl-2-(phenylamino)-6H-1,3,4-thiadiazin-3-ium bromide] | 44 ± 4 nM
58 | CC/N=C1/NN=C(c2ccc(Br)cc2)CS1 [Compound 9f, (Z)-N-(5-(4-Bromophenyl)-3,6-dihydro-2H-1,3,4-thiadiazin-2-ylidene)ethan aminium bromide] | 66 ± 6 nM
59 | Brc1ccc(C2=NN/C(=N/C3CCCCC3)SC2)cc1 [Compound 9g, (Z)-N-(5-(4-Bromophenyl)-3,6-dihydro-2H-1,3,4-thiadiazin-2-ylidene) cyclohexanaminium bromide] | 56 ± 5 nM

Test system: BRAF^V600E
Test: Western blotting, BRAF^V600E level in A549 cells
Type: cell-based, human
Conditions: untreated control OD 0.507

Row | SMILES | Western blotting OD, BRAF^V600E
60 | Br.c1ccc(C2=NN/C(=N/C3CCCCC3)SC2)cc1 [Compound 9c, (Z)-N-(5-Phenyl-3,6-dihydro-2H-1,3,4-thiadiazin-2-ylidene) cyclohexanaminium bromide] | 0.219
